Experiments:
Assay in all cases: CETSA-MS, MDA-MB-231 intact cells
Assay type in all cases: cell-based
Conditions in all cases: 2 μM and 20 μM
ZFR = target: T1, ZFR (Homo sapiens, UniProt Q96KR1)
T1 construct: endogenous in cells; host or cells: MDA-MB-231
Experimental: (§1) TNBC MDA-MB-231 cells were grown at 37° C. in 5% CO2 and suspended in warm media and split into 4 equal volumes. […] Cells were incubated and then pelleted. Following pelleting, the cells were washed, resuspended, and heated in a thermal gradient. Following heating, the samples were flash frozen and lysed in lysis buffer, agitated by vortex, and sonicated prior to centrifugation. The supernatant was collected and denaturation buffer added. Cold acetone was then added to the cell samples, and protein collected by centrifugation. Pellets were then washed twice with cold acetone and the washed pellets prior to labeling.
(§2) The intact cell protein samples and lysate protein samples were then digested and labeled for mass spectrometry analysis according to the manufacturer's recommended protocols. Digested and labeled protein samples were analyzed by mass spectrometry proteomic analysis and the resulting protein targets were analyzed and plotted.

CERS2 = target: T2, CERS2 (Homo sapiens, UniProt Q96G23)
T2 construct: endogenous in cells; host or cells: MDA-MB-231
Experimental: as §1, §2

METTL18 = target: T3, METTL18 (Homo sapiens, UniProt O95568)
T3 construct: endogenous in cells; host or cells: MDA-MB-231
Experimental: as §1, §2

HNRNPUL2 = target: T4, HNRNPUL2 (Homo sapiens, UniProt Q1KMD3)
T4 construct: endogenous in cells; host or cells: MDA-MB-231
Experimental: as §1, §2

TTK = target: T5, TTK (Homo sapiens, UniProt P33981)
T5 construct: endogenous in cells; host or cells: MDA-MB-231
Experimental: as §1, §2

ILF3 = target: T6, ILF3 (Homo sapiens, UniProt Q12906)
T6 construct: endogenous in cells; host or cells: MDA-MB-231
T6 sequence (Q12906 whole entry): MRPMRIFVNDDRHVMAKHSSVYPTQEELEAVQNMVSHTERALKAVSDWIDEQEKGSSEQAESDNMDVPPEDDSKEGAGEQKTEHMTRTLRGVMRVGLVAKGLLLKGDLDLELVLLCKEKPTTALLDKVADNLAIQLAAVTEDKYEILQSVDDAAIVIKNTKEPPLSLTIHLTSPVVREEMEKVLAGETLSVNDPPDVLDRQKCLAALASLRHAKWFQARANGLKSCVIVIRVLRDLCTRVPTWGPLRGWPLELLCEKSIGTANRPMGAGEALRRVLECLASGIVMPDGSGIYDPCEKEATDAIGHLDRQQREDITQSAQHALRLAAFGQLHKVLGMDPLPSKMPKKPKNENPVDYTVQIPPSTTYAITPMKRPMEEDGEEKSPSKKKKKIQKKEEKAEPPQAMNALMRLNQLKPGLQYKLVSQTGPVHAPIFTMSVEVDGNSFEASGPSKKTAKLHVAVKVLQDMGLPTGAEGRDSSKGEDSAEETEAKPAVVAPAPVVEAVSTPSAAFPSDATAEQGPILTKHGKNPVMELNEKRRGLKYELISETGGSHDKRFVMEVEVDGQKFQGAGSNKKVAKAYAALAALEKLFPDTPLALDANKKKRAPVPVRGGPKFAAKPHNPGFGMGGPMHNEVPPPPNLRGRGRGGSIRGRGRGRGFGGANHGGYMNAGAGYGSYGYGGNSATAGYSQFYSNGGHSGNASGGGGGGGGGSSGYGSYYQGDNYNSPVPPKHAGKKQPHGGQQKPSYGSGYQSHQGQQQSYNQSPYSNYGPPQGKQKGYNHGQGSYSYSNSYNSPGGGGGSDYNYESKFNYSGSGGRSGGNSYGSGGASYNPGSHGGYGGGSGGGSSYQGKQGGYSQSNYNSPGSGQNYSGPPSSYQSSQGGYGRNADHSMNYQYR
Experimental: as §1, §2

HNRNPA1 = target: T7, HNRNPA1 (Homo sapiens, UniProt P09651)
T7 construct: 148 targets unique to Compound 1 in MDA-MB-231 intact cells; endogenous in cells; host or cells: MDA-MB-231
Experimental: as §1, §2

DBNDD2 = target: T8, DBNDD2 (Homo sapiens, UniProt Q9BQY9)
T8 construct: 148 targets unique to Compound 1 in MDA-MB-231 intact cells; endogenous in cells; host or cells: MDA-MB-231
Experimental: as §1, §2

GSKIP = target: T9, GSKIP (Homo sapiens, UniProt Q9P0R6)
T9 construct: 148 targets unique to Compound 1 in MDA-MB-231 intact cells; endogenous in cells; host or cells: MDA-MB-231
Experimental: as §1, §2

CDC5L = target: T10, CDC5L (Homo sapiens, UniProt Q99459)
T10 construct: endogenous in cells; host or cells: MDA-MB-231
Experimental: as §1, §2

FUBP3 = target: T11, FUBP3 (Homo sapiens, UniProt Q96I24)
T11 construct: 148 targets unique to Compound 1 in MDA-MB-231 intact cells; endogenous in cells; host or cells: MDA-MB-231
Experimental: as §1, §2

SIK2 = target: T12, SIK2 (Homo sapiens, UniProt Q9H0K1)
T12 construct: endogenous in cells; host or cells: MDA-MB-231
T12 sequence (Q9H0K1 whole entry): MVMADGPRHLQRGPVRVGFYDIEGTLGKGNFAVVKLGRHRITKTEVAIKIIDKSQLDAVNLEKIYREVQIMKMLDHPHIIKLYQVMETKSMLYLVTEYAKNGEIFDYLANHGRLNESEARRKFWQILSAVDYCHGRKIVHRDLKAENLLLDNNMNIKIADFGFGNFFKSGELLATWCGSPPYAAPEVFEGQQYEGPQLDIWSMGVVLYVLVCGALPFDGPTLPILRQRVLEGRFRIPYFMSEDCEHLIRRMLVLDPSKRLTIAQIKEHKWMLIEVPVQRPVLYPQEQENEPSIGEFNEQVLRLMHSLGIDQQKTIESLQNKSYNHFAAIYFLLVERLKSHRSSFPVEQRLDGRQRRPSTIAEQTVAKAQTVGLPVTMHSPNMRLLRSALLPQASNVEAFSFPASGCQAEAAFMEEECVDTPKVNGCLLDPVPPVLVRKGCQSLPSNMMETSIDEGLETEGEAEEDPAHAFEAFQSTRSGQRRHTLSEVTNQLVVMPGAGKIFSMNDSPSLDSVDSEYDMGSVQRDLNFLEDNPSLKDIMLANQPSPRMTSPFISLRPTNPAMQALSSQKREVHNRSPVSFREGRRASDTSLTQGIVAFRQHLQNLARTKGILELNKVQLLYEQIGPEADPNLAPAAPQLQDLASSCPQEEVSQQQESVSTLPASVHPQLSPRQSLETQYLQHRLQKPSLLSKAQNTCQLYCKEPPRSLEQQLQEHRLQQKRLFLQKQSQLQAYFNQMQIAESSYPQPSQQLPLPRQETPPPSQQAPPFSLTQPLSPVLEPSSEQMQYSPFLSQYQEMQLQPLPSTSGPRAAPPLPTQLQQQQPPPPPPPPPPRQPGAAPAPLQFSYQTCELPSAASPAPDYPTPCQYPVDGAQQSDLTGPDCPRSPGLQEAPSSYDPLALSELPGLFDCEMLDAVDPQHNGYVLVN
Experimental: as §1, §2

CDK7 = target: T13, CDK7 (Homo sapiens, UniProt P50613)
T13 construct: endogenous in cells; host or cells: MDA-MB-231
Experimental: as §1, §2

LTBP2 = target: T14, LTBP2 (Homo sapiens, UniProt Q14767)
T14 construct: endogenous in cells; host or cells: MDA-MB-231
Experimental: as §1, §2

RAE1 = target: T15, RAE1 (Homo sapiens, UniProt P78406)
T15 construct: endogenous in cells; host or cells: MDA-MB-231
T15 sequence (P78406 whole entry): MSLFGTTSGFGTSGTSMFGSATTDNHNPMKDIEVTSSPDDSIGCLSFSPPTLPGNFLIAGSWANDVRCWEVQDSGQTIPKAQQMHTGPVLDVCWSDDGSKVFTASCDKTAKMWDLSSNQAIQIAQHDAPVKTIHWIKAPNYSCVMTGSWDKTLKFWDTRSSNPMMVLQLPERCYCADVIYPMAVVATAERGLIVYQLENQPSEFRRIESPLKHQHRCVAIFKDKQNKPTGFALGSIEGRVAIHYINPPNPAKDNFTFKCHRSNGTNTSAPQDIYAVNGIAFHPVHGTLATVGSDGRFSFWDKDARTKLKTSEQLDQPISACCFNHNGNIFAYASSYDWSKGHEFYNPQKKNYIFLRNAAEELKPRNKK
Experimental: as §1, §2

MATR3 = target: T16, MATR3 (Homo sapiens, UniProt P43243)
T16 construct: endogenous in cells; host or cells: MDA-MB-231
T16 sequence (P43243 whole entry): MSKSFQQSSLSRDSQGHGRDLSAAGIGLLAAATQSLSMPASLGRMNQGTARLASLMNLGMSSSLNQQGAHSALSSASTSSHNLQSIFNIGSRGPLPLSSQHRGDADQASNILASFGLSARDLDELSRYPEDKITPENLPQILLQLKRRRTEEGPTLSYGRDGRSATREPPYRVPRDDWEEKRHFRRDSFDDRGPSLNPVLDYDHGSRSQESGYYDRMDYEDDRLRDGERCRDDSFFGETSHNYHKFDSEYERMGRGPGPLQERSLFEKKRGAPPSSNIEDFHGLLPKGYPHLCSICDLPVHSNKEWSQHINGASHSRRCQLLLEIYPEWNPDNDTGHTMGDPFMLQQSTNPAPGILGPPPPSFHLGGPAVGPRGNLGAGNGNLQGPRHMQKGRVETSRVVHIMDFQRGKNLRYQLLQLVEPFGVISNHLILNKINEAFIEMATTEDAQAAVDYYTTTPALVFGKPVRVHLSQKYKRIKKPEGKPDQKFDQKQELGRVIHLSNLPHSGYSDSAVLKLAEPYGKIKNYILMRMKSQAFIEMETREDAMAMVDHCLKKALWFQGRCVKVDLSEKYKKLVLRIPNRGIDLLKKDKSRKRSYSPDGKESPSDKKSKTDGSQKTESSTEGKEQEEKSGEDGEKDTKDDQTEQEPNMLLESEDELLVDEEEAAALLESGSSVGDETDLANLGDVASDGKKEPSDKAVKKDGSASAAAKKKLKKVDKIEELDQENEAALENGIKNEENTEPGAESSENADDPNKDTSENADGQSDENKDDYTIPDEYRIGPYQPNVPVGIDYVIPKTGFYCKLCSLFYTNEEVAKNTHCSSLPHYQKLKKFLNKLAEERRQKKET
Experimental: as §1, §2

PHF8 = target: T17, PHF8 (Homo sapiens, UniProt Q9UPP1)
T17 construct: endogenous in cells; host or cells: MDA-MB-231
T17 sequence (Q9UPP1 whole entry): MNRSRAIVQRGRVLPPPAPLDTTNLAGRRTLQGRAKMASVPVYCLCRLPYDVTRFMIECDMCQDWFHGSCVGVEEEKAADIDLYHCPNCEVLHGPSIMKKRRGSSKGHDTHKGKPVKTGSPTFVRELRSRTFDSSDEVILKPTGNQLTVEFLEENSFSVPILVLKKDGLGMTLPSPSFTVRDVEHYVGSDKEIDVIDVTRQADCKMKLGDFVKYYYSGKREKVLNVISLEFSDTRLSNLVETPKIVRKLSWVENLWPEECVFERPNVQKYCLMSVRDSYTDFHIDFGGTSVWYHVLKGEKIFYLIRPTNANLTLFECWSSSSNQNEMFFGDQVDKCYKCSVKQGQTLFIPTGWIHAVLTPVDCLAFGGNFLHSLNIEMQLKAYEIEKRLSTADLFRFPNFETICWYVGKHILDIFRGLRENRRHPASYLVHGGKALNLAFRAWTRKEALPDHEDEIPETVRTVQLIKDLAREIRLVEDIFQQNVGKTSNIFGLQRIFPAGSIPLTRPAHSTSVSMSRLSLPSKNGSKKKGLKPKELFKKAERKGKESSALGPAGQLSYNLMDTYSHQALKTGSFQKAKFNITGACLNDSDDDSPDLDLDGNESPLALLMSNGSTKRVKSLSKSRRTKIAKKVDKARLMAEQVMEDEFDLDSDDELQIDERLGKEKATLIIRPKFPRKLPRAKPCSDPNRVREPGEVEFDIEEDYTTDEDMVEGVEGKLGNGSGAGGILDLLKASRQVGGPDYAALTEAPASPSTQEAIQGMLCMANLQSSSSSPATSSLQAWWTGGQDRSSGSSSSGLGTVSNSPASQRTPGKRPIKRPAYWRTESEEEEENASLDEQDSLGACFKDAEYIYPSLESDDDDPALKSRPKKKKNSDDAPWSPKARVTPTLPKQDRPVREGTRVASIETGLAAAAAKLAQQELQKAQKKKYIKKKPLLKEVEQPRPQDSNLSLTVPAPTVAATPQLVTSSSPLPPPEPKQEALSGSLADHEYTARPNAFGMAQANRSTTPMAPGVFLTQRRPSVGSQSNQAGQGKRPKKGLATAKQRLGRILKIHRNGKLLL
Experimental: as §1, §2

GAK = target: T18, GAK (Homo sapiens, UniProt O14976)
T18 construct: 148 targets unique to Compound 1 in MDA-MB-231 intact cells; endogenous in cells; host or cells: MDA-MB-231
Experimental: as §1, §2

CELF1 = target: T19, CELF1 (Homo sapiens, UniProt Q92879)
T19 construct: endogenous in cells; host or cells: MDA-MB-231
Experimental: as §1, §2

ADAR = target: T20, ADAR (Homo sapiens, UniProt P55265)
T20 construct: endogenous in cells; host or cells: MDA-MB-231
Experimental: as §1, §2

HNRNPC = target: T21, HNRNPC (Homo sapiens, UniProt P07910)
T21 construct: 148 targets unique to Compound 1 in MDA-MB-231 intact cells; endogenous in cells; host or cells: MDA-MB-231
Experimental: as §1, §2

LYPLA2 = target: T22, LYPLA2 (Homo sapiens, UniProt O95372)
T22 construct: endogenous in cells; host or cells: MDA-MB-231
Experimental: as §1, §2

STK10 = target: T23, STK10 (Homo sapiens, UniProt O94804)
T23 construct: endogenous in cells; host or cells: MDA-MB-231
Experimental: as §1, §2

CHEK1 = target: T24, CHEK1 (Homo sapiens, UniProt O14757)
T24 construct: endogenous in cells; host or cells: MDA-MB-231
T24 sequence (O14757 1-476): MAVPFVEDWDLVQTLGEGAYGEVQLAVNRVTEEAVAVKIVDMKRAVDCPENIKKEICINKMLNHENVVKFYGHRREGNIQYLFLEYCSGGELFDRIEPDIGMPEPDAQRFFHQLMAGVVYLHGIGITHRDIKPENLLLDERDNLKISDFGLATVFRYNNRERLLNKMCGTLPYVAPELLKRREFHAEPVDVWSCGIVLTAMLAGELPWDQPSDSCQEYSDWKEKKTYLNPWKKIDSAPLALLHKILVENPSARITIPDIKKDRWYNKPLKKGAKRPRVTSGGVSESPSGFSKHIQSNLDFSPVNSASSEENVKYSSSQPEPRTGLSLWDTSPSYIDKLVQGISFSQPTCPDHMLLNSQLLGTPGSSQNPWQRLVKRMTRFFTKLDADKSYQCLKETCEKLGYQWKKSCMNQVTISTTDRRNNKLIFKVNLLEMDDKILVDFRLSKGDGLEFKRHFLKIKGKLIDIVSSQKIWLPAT
Experimental: as §1, §2

AXL = target: T25, AXL (Homo sapiens, UniProt P30530)
T25 construct: endogenous in cells; host or cells: MDA-MB-231
T25 sequence (P30530 26-894): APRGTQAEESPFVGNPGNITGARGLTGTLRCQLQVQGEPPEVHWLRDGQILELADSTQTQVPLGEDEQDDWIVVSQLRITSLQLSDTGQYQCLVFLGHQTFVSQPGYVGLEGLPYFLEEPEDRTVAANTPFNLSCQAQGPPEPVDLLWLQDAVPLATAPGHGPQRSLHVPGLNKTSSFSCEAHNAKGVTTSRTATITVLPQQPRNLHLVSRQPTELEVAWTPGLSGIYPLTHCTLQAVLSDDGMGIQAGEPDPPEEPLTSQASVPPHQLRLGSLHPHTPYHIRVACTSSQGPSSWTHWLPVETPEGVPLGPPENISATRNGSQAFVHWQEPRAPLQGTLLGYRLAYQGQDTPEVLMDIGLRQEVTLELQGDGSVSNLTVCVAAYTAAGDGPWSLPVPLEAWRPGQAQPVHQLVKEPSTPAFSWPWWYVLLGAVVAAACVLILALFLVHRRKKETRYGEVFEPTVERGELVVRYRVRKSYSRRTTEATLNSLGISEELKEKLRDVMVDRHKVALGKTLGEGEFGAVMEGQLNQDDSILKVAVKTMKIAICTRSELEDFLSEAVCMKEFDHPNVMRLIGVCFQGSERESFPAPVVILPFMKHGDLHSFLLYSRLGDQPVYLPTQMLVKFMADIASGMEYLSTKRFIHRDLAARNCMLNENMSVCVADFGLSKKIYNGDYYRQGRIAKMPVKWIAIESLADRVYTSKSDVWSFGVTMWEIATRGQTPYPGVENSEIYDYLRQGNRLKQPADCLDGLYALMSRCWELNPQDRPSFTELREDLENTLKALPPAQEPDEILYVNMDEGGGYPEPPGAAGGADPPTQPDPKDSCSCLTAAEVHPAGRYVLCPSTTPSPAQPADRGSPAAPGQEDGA
Experimental: as §1, §2

APLP2 = target: T26, APLP2 (Homo sapiens, UniProt Q06481)
T26 construct: endogenous in cells; host or cells: MDA-MB-231
Experimental: as §1, §2

LRPPRC = target: T27, LRPPRC (Homo sapiens, UniProt P42704)
T27 construct: endogenous in cells; host or cells: MDA-MB-231
Experimental: as §1, §2

LRRC59 = target: T28, LRRC59 (Homo sapiens, UniProt Q96AG4)
T28 construct: endogenous in cells; host or cells: MDA-MB-231
Experimental: as §1, §2

MRPL55 = target: T29, MRPL55 (Homo sapiens, UniProt Q7Z7F7)
T29 construct: endogenous in cells; host or cells: MDA-MB-231
Experimental: as §1, §2

COL2A1 = target: T30, COL2A1 (Homo sapiens, UniProt P02458)
T30 construct: endogenous in cells; host or cells: MDA-MB-231
Experimental: as §1, §2

CN1CCN(c2ccc(Nc3ncc4cc(C#N)c(=O)n(C5CCCC5)c4n3)cc2)CC1 [Compound 1, 8-cyclopentyl-2-((4-(4-methylpiperazin-1-yl)phenyl)amino)-7-oxo-7,8-dihydropyrido[2,3-d]pyrimidine-6-carbonitrile]
Group (CETSA-MS thermal shift) (ZFR): Stabilization | Group (CETSA-MS thermal shift) (CERS2): Stabilization | Group (CETSA-MS thermal shift) (METTL18): Stabilization | Group (CETSA-MS thermal shift) (HNRNPUL2): Stabilization | Group (CETSA-MS thermal shift) (TTK): Stabilization | Group (CETSA-MS thermal shift) (ILF3): Stabilization | Group (CETSA-MS thermal shift) (HNRNPA1): Stabilization | Group (CETSA-MS thermal shift) (DBNDD2): Stabilization | Group (CETSA-MS thermal shift) (GSKIP): Stabilization | Group (CETSA-MS thermal shift) (CDC5L): Stabilization | Group (CETSA-MS thermal shift) (FUBP3): Stabilization | Group (CETSA-MS thermal shift) (SIK2): Stabilization | Group (CETSA-MS thermal shift) (CDK7): Destabilization | Group (CETSA-MS thermal shift) (LTBP2): Stabilization | Group (CETSA-MS thermal shift) (RAE1): Stabilization | Group (CETSA-MS thermal shift) (MATR3): Stabilization | Group (CETSA-MS thermal shift) (PHF8): Stabilization | Group (CETSA-MS thermal shift) (GAK): Stabilization | Group (CETSA-MS thermal shift) (CELF1): Stabilization | Group (CETSA-MS thermal shift) (ADAR): Stabilization | Group (CETSA-MS thermal shift) (HNRNPC): Stabilization | Group (CETSA-MS thermal shift) (LYPLA2): Destabilization | Group (CETSA-MS thermal shift) (STK10): Stabilization | Group (CETSA-MS thermal shift) (CHEK1): Destabilization | Group (CETSA-MS thermal shift) (AXL): Stabilization | Group (CETSA-MS thermal shift) (APLP2): Stabilization | Group (CETSA-MS thermal shift) (LRPPRC): Stabilization | Group (CETSA-MS thermal shift) (LRRC59): Stabilization | Group (CETSA-MS thermal shift) (MRPL55): Stabilization | Group (CETSA-MS thermal shift) (COL2A1): Stabilization

Source: patent publication US20260183295A1, “METHODS AND COMPOSITIONS FOR TREATING CANCER” (Onconova Therapeutics, Inc., priority 2022, published 2026)
